# Measured values reported in patent US6326139A (priority 1997, dated 2001).
# “Also recorded” adds a separate entry of the source. Like-named read-outs stand apart in the source and are kept apart here.
# Legend:
# [1] = biological target: T1, Rec. BuChE D/D (normal) (Homo sapiens, UniProt P06276); assay: Inhibition by cocaine / α-solanine, recombinant D/D; format: biochemical; conditions: Rec. BuChE D/D; read-out: IC50 α-solanine
# T1 construct: made in house; host or cells: Xenopus oocytes (microinjected in vitro transcribed mRNA)
# [2] = biological target: T2, Serum BuChE D/D (normal) (Homo sapiens, UniProt P06276); assay: Inhibition by cocaine / α-solanine, serum D/D; format: biochemical; conditions: Serum BuChE D/D; read-out: IC50 α-solanine
# T2 construct: with enzyme from normal serum; from tissue; host or cells: human serum, normal homozygote
# [3] = biological target: T3, Serum BuChE G/G ("atypical") (Homo sapiens, UniProt P06276, D98G); assay: Inhibition by cocaine / α-solanine, serum G/G; format: biochemical; conditions: Serum BuChE G/G; read-out: IC50 α-solanine
# T3 construct: applicants prepared serum from an individual who had experienced succinylcholine-induced apnea; from tissue; host or cells: human serum, homozygous carrier of the atypical allele
# [4] = tested on: Rec. BuChE D/G (1:1 mixture); format: biochemical, human; conditions: read-out: IC50 α-solanine
# [5] = biological target: T4, Rec. BuChE G/G ("atypical") (Homo sapiens, UniProt P06276, D98G); assay: Inhibition by cocaine / α-solanine, recombinant G/G; format: biochemical; conditions: Rec. BuChE G/G; read-out: IC50 α-solanine
# T4 construct: made in house; host or cells: Xenopus oocytes (microinjected in vitro transcribed mRNA)
# [6] = tested on: Serum BuChE D/G (heterozygote); format: biochemical, human; conditions: read-out: IC50 α-solanine
# [7] = biological target: T5, normal BuChE (serum and recombinant) (Homo sapiens, UniProt P06276); assay: Inhibition by cocaine / α-solanine, normal enzymes; format: biochemical; conditions: normal; read-out: IC50 for α-solanine
# T5 construct: made in house; host or cells: Xenopus oocytes (recombinant) and normal human serum (native), reported together
# [8] = biological target: serum and recombinant "atypical" BuChE (Homo sapiens, UniProt P06276, D98G); assay: Inhibition by cocaine / α-solanine, "atypical" enzymes; format: biochemical; conditions: for activity of "atypical" enzyme at high α-solanine: concentrations higher than 5 μM, FIG. 3
# [9] = tested on: serum "atypical" BuChE (G/G); assay: Inactivation of immobilized serum BuChE, "atypical"; format: biochemical, human; conditions: for rate of irreversible inactivation versus normal: "atypical" serum BuChE
# [10] = biological target: T6, "atypical" BuChE (Homo sapiens, UniProt P06276, D98G)
# Target sequence in this assay (P06276 29-602 D98G): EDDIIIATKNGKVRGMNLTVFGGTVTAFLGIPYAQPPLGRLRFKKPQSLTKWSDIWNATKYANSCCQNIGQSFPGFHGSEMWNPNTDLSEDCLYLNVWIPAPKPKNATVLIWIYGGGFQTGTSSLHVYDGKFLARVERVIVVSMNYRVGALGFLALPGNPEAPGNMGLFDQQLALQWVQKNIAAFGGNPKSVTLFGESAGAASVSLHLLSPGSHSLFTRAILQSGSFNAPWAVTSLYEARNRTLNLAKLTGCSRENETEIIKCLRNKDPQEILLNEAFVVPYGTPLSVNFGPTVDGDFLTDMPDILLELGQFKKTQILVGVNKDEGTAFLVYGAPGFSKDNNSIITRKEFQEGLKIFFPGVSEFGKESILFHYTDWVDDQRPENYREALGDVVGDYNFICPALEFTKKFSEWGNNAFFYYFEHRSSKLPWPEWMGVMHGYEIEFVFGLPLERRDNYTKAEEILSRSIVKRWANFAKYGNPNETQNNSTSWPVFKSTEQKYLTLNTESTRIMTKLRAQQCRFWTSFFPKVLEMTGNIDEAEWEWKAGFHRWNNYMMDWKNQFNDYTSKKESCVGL
# Experimental: Recombinant normal and "atypical" BuChE were produced in Xenopus oocytes microinjected with in vitro transcribed BuChEmRNAs prepared from the corresponding cDNA types (Neville et al, 1990a).
# Free binding sites were blocked with PBS-T buffer (144 mM NaCl, 20 mM Na phosphate pH 7.4, 0.05% Tween 20 and 0.01% Tymerosal) for 60 minutes at 37° C. […] Plates were washed three times with PBS-T prior to use.
# Inactivation and reactivation measurements: Antibody-immobilized enzymes were exposed to the tested anti-ChEs in PBS-T buffer for varying times (0.5 to 80 minutes) following an initial determination of catalytic activities. At the noted time points, plates were washed three times with PBS-T and remaining substrate hydrolysis rates were determined (Loewenstein et al., 1993a). Spontaneous reactivation was measured for immobilized recombinant ChEs following complete inhibition, three washes with PBS-T, and subsequent incubation for the noted time and activity determination.
# [11] = biological target: T6, "atypical" BuChE; conditions: cited from earlier work
# Target sequence in this assay (P06276 29-602 D98G limits assumed): as the sequence (P06276 29-602 D98G) above
# [12] = tested on: recombinant human AChE; assay: Spontaneous reactivation after complete inhibition, AChE; format: biochemical
# [13] = tested on: AD patients; conditions: in vivo; cited from earlier work
# [14] = biological target: T7, recombinant normal BuChE (Homo sapiens, UniProt P06276); assay: Inactivation by carbamate inhibitors, normal BuChE; format: biochemical; conditions: for inactivation rate compared with AChE: common BuChE; for second order rate constant ki for inactivation: recombinant normal BuChE, inhibitor concentration in parentheses in table
# T7 construct: made in house; host or cells: Xenopus oocytes injected with in vitro transcribed mRNA
# Excerpt: (§1) reagent concentration (in parentheses), to calculate second order rate
# [15] = biological target: T6, "atypical" BuChE; conditions: cited from earlier work; remark: listed apart in the source
# Target sequence in this assay (P06276 29-602 D98G limits assumed): as the sequence (P06276 29-602 D98G) above
# [16] = tested on: PD-patient; conditions: in vivo; cited from earlier work
# [17] = tested on: THA treated patients; conditions: in vivo, cited from earlier work
# [18] = tested on: BuChE in sera from heterozygotes
# [19] = tested on: patients suffering from mild to moderate AD; conditions: cited from earlier work
# [20] = biological target: AChE (E6) (Homo sapiens, UniProt P22303); assay: Inactivation by carbamate inhibitors, AChE E6; format: biochemical; parameters: made in house; host or cells: Xenopus oocytes injected with ACHE DNA; conditions: inhibitor concentration in parentheses in table
# Excerpt: as §1
# [21] = biological target: AChE (E5) (Homo sapiens, UniProt P22303); assay: Inactivation by carbamate inhibitors, AChE E5; format: biochemical; parameters: made in house; host or cells: Xenopus oocytes injected with ACHE DNA; conditions: inhibitor concentration in parentheses in table
# Excerpt: as §1
# [22] = tested on: serum normal BuChE (D/D); assay: Inactivation of immobilized serum BuChE, normal; format: biochemical, human; conditions: 30 minutes; normal enzyme
# [23] = tested on: recombinant human ChEs (all of the examined enzymes); assay: Spontaneous reactivation after complete inhibition, all enzymes; format: biochemical
# [24] = tested on: heterozygous serum BuChE (D/G); assay: Inactivation of immobilized serum BuChE, heterozygote; format: biochemical, human; conditions: 30 minutes
# [25] = tested on: recombinant human BuChE, normal and "atypical"; assay: Spontaneous reactivation after complete inhibition, BuChE; format: biochemical
# [26] = tested on: H.K., homozygous for the "atypical" allele; conditions: in vivo
# [27] = tested on: AChE in term placenta sections; assay: Cytochemical ChE staining, term placenta; parameters: species or system human; conditions: 10^-5 M
# [28] = tested on: BuChE in early placenta sections; assay: Cytochemical ChE staining, early placenta; parameters: species or system human; conditions: 10^-5 M
# [29] = tested on: "atypical" BuChE in H.K.'s serum; assay: Serum BuChE hydrolysis, H.K.'s serum; format: biochemical, human
# [30] = tested on: ChE; conditions: cited from earlier work
# AChE (E6), sequence (P22303 32-614): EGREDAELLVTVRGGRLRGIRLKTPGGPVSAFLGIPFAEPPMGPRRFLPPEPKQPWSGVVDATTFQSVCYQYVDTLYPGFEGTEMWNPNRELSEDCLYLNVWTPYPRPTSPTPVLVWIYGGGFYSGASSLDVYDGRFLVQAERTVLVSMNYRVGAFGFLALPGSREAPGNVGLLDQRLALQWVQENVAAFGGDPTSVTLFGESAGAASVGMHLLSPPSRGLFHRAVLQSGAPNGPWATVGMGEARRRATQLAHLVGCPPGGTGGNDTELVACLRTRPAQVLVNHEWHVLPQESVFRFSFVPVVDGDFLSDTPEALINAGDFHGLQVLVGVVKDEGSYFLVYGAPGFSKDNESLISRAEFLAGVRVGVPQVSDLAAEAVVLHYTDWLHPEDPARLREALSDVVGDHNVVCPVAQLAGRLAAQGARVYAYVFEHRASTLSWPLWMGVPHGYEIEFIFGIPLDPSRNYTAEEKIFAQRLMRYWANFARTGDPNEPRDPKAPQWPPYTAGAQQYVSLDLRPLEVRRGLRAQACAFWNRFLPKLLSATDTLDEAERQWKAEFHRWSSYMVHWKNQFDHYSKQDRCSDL
# serum and recombinant "atypical" BuChE, sequence (P06276 29-602 D98G limits assumed): as the sequence (P06276 29-602 D98G) above
# AChE (E5), sequence (P22303-4 with tags, fused parts or gaps limits assumed): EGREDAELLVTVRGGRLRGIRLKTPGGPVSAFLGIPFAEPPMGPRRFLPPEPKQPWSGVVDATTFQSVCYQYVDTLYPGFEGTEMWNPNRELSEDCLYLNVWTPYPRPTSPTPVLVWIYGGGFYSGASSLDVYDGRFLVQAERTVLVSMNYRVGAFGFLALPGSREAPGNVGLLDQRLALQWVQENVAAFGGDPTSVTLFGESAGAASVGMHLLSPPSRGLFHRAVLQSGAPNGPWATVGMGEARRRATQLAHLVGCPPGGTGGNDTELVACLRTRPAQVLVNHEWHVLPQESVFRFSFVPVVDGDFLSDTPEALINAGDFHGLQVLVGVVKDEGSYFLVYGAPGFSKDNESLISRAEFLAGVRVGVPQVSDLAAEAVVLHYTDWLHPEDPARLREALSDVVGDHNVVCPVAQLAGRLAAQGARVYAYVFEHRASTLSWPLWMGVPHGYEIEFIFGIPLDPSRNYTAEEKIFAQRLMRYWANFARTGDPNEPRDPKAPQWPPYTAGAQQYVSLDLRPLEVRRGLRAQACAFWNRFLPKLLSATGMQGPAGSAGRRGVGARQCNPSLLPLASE
# T7 sequence (P06276 29-602): as the sequence (P06276 29-602 D98G) above, with G70D counted along it
# T3 sequence (P06276 29-602 D98G): as the sequence (P06276 29-602 D98G) above
# T4 sequence (P06276 29-602 D98G): as above
# T1 sequence (P06276 29-602): as the sequence (P06276 29-602 D98G) above, with G70D counted along it
# T2 sequence (P06276 29-602): as the sequence (P06276 29-602 D98G) above, with G70D counted along it
# T5 sequence (P06276 29-602): as the sequence (P06276 29-602 D98G) above, with G70D counted along it
smiles,measurement,setting,value
C[C@H]1CC[C@@H]2[C@@H](C)[C@H]3[C@H](C[C@H]4[C@@H]5CC=C6C[C@@H](O[C@@H]7O[C@H](CO)[C@H](O)[C@H](O[C@@H]8O[C@H](CO)[C@@H](O)[C@H](O)[C@H]8O)[C@H]7O[C@@H]7O[C@@H](C)[C@H](O)[C@@H](O)[C@H]7O)CC[C@]6(C)[C@H]5CC[C@]34C)N2C1 [α-solanine],IC50,[1],1.95 ± 1.04 µM
same,IC50,[2],2.88 ± 0.33 µM
same,IC50,[3],165 µM
same,IC50,[4],3.54 ± 2.41 µM
same,IC50,[5],171 µM
same,IC50,[6],3.61 ± 0.81 µM
same,IC50,[7],2.5 µM
same,IC50,"[8]; ""atypical""",170 µM
same,IC50 difference for α-solanine,"[8]; ""atypical"" vs normal",> 100 fold
same,"activity of ""atypical"" enzyme at high α-solanine",[8],retains higher activity than the normal and the heterozygote enzymes
same,"activity of ""atypical"" enzyme at high α-solanine",[8]; listed as α-solanidine,"shows higher activities than the normal, D70 enzyme"
same,"inhibition of ""atypical"" enzyme by α-solanine",[8]; up to 10 μM,relatively inert
CNC(=O)Oc1ccc2c(c1)[C@]1(C)CCN(C)[C@@H]1N2C [physostigmine],rate of irreversible inactivation versus normal,[9],much slower than its normal counterpart
same,"inactivation rate of ""atypical"" BuChE, compared",[10],considerably lower rates
same,"higher IC50 value, ""atypical"" versus wild-type",[11],at least 10 fold
same,"higher Ki value, ""atypical"" versus wild-type",[11],at least 10 fold
same,sensitivity of atypical variant to inhibitors,[11],much less sensitive
same,"spontaneous reactivation, % of original activity","[12]; 45 minutes, AChE",up to 90%
same,effect on cognitive functions,[13],"small, short-term positive effect on cognitive functions"
same,inactivation rate compared with AChE,[14],higher than or equal to ACHE
same,second order rate constant ki for inactivation,[14],6330 ± 2670 M⁻¹ s⁻¹
CN(C)C(=O)Oc1cc(OC(=O)N(C)C)cc(C(O)CNC(C)(C)C)c1 (stereo not shown) [bambuterol],"higher IC50 value, ""atypical"" versus wild-type",[11],at least 10 fold
same,"higher Ki value, ""atypical"" versus wild-type",[11],at least 10 fold
CCCCOc1cc(C(=O)NCCN(CC)CC)c2ccccc2n1 [dibucaine],"hydrolysis by the affected (""atypical"") enzyme",[15],inability
"Nc1c2c(nc3ccccc13)CCCC2 [tacrine, 1,2,3,4-tetrahydro-9 aminoacridine]",PD symptoms,[16],worsening of the symptoms
same,patients with cholinergic side-effects / deficits,[17],up to 15%
same,patients with cholinergic side-effects / deficits,[17]; listed as THA,over 10%
same,effect of 1 μm of the drug,[18],intermediate levels of activity
same,improvement in AD,[19]; 30 weeks,"statistically significant, dose-related improvements"
same,serum level of the aminotransferase,[19]; in 2% of the cases,20 times the upper limit of normal value
same,cases reaching 20 times the upper limit of normal aminotransferase,[19]; in vivo,2%
same,"serum level of the aminotransferase, usual",[19]; in vivo,less than three times the upper limit of normal value
CCN(C)C(=O)Oc1cccc([C@H](C)N(C)C)c1 [SDZ ENA-713],decrease in activity,"[9]; 30 minutes, ""atypical"" BuChE",about 40%
same,rate of irreversible inactivation versus normal,[9],much slower than its normal counterpart
same,second order rate constant ki for inactivation,[20],71.7 M⁻¹ s⁻¹
same,"inactivation rate of ""atypical"" BuChE, compared",[10],considerably lower rates
same,second order rate constant ki for inactivation,[21],55 ± 10 M⁻¹ s⁻¹
same,loss of activity,[22],95%
same,inactivation rate compared with AChE,[14],higher than or equal to ACHE
same,second order rate constant ki for inactivation,[14],233 ± 50 M⁻¹ s⁻¹
same,"spontaneous reactivation, % of original activity",[23],≤ 8%
same,loss of activity,[24],80%
CN(C)C(=O)Oc1ccc[n+](C)c1 [pyridostigmine],"spontaneous reactivation, % of original activity","[25]; BuChE, pyridostigmine, FIG. 4",10%
same,rate of irreversible inactivation versus normal,[9],much slower than its normal counterpart
same,second order rate constant ki for inactivation,[20],367 ± 150 M⁻¹ s⁻¹
same,"spontaneous reactivation, % of original activity","[12]; AChE, pyridostigmine, FIG. 4",50%
same,second order rate constant ki for inactivation,[21],417 M⁻¹ s⁻¹
same,second order rate constant ki for inactivation,[14],31.7 ± 3.3 M⁻¹ s⁻¹
same,adverse symptoms,[26],"insomnia, weight loss and general fatigue, which worsened consistently, and a deep depression"
same,time of gradual improvement following discontinuation,[26],10 weeks
"CC(C)NP(=O)(NC(C)C)OP(=O)(NC(C)C)NC(C)C [iso-OMPA, tetraisopropylpyrophosphoramide]",staining of term placenta,[27],no reduction in labeling intensity
same,sensitivity of atypical variant to inhibitors,[11],much less sensitive
same,staining of early placenta sections,[28],remained totally unlabeled
C[N+](C)(C)CCOC(=O)CCC(=O)OCC[N+](C)(C)C [succinylcholine],"hydrolysis by the affected (""atypical"") enzyme",[15],unable to hydrolyze succinylcholine
same,"hydrolysis by the affected (""atypical"") enzyme",[15]; listed as succinyl choline,unable to hydrolyze succinyl choline; also recorded: inability
same,hydrolysis of succinylcholine by H.K.'s serum BuChE,[29],totally incapable of hydrolyzing succinylcholine; also recorded: cannot hydrolyze succinylcholine
"CCCCCCCNC(=O)Oc1ccc2c(c1)C1(C)CCN(C)C1N2C (single isomer, unassigned) [N-heptyl physostigmine]","spontaneous reactivation, % of original activity","[25]; by 20 minutes, normal and ""atypical"" BuChE",10%
same,rate of irreversible inactivation versus normal,[9],much slower than its normal counterpart
same,second order rate constant ki for inactivation,[20],26700 M⁻¹ s⁻¹
same,"inactivation rate of ""atypical"" BuChE, compared",[10],considerably lower rates
same,"spontaneous reactivation, % of original activity","[12]; both AChE forms, N-heptyl physostigmine",5%
same,second order rate constant ki for inactivation,[21],23300 ± 6700 M⁻¹ s⁻¹
same,inactivation rate compared with AChE,[14],higher than or equal to ACHE
same,second order rate constant ki for inactivation,[14],183000 ± 50000 M⁻¹ s⁻¹
CN(C)C(=O)Oc1cccc([N+](C)(C)C)c1 [neostigmine],potency / affinity,[30],potency equal to or greater than physostigmine
"C=CC[N+](C)(C)c1ccc(CCC(=O)CCc2ccc([N+](C)(C)CC=C)cc2)cc1 [BW284C51, 1,5-bis-(4-allyldimethylammoniumphenyl)-pentane-3-one dibromide]",staining of term placenta,[27],largely suppressed staining in term
same,staining of early placenta sections,[28],not early placenta
